Measured values from US11491144B2, “Methods of treating fragile X mental retardation syndrome” (The Florida State University Research Foundation, …, priority 2018, dated 2022).

Columns and labels:
male FX mice = test: Spontaneous locomotor activity assay (photobeam breaks, dark phase); format: in vivo, mouse; settings: male FX mice (B6.129P2-Fmr1tm1Cgr/J); nor-BNI 20 mg/kg or MPH 0.75 mg/kg intraperitoneal; measured between 7 pm and 7 am
Description: (§1) The B6.129P2-Fmr1^tm1Cgr/J strain of mouse was used in the studies as it is a widely used mouse model of FX (Kazdoba et al. Intractable Rare Dis. Res. 2014, 3, 118), and C57BL/6J mice were used as the control strain of mice. Mice were housed 2-4 per cage and maintained on a “reversed” light cycle (lights-off at 7 am and lights-on at 7 pm). They were habituated to the investigator by extensive handing for at least one week prior to the beginning of behavioral analyses. Additionally, they were habituated to the behavioral test room for at least 30 min prior to the behavioral testing, and testing was conducted under dim red light.
(§2) The mice underwent a battery of tests starting on postnatal day 60 (P60). Behavioral analyses included measurements of spontaneous locomotor activity, working memory, attention, and social interactions. Approximately 12 male and/or female mice were used for each behavioral test.
Spontaneous locomotor activity was assayed by using a testing chamber with photobeam motion sensors (Photobeam Activity Systems, San Diego Instruments, San Diego, Calif.). […] Photobeam breaks were recorded, scored as an ambulatory event, and grouped into hourly activity measurements for statistical analysis. Cumulative activity over the 12 hour “dark phase” was calculated. […]

FX mice = test: Cliff avoidance reflex (CAR) test for motor impulsivity; format: in vivo, mouse; settings: 20 mg/kg intraperitoneal, 30 min test, 5 min intervals
Description: as §1, §2
Motor-impulsivity was assayed using a cliff avoidance reflex (CAR) test. The apparatus consists of a round Plexiglas platform (20 cm in diameter) supported by an iron rod (50 cm in height). The mouse is placed on the platform and observed over a period of 30 min. If the mouse falls off the platform during the 30 min period, it is picked up and returned to the platform to complete the test. The number of falls is recorded, and the data are analyzed at 5 min intervals.

Row | Compound | Spontaneous locomotor activity compared to saline (male FX mice) | Time course of cliff avoidance reflex (FX mice; female FX mice) | Time course of cliff avoidance reflex (FX mice; male FX mice)
1 | COC(=O)C(c1ccccc1)C1CCCCN1 (stereo not shown) [Methylphenidate, methylphenidate] | did not produce significant effects | – | –
2 | Oc1ccc2c3c1O[C@H]1c4[nH]c5c(c4C[C@@]4(O)[C@@H](C2)N(CC2CC2)CC[C@]314)C[C@@]1(O)[C@H]2Cc3ccc(O)c4c3[C@@]1(CCN2CC1CC1)[C@H]5O4 [nor-BNI, norbinaltorphimine] | significant reduction in activity | improved the time course of cliff avoidance reflex | did not produce significant effects
